Among the data in a melting point compilation (Tetko et al.; mined from patent text by program, amines drawn as free bases though some values may be those of a salt) are melting point values, retold here.

For orientation: melting point means the temperature, or range, at which the solid turns liquid. With `Cn1nncc1COc1nn2c(-c3ccccc3)nnc2cc1-c1ccccc1`, the melting point lay within 190 to 193 °C.

With `O=C(Cc1ccc(Cl)c(Cl)c1)N1CCCC2CCCC(N3CCCC3)C21` (centres undefined), the melting point fell in the range of 82 to 84 °C.

Compound `N#Cc1c(NCCCN2CCCC2)ncc2c1-c1ccccc1C(c1ccc(Cl)c(Cl)c1)C2` (centres undefined) had a melting point of 104 to 110 °C.

`O=C(O)COc1cccc(COC(=O)N(c2ccccc2)c2ccccc2)c1Cl` returned a melting point of 182 to 183 °C.

The compound `CSc1ncnc2c(N(C)C)nc(Cl)nc12` came in with a melting point of 166 to 168 °C.

As to `COc1cc(C(=O)N(CCCC(=O)O)c2cccc3ccccc23)cc(OC)c1OC`, the melting point lay in the range of 143 to 145 °C.

`CCCSc1ncc(C(=O)O)n1Cc1ccccc1Cl` came in with a melting point of 158 to 160 °C.

Consider `Cc1cn(N=Cc2cccnc2)c(=O)n1C`, for which the melting point fell in the range of 186 to 187 °C.

Regarding `O=[N+]([O-])c1ccc(CCS(=O)(=O)NCc2ccccc2)cc1`, the melting point was in the range of 125 to 127 °C.

Regarding `O=S(=O)(Nc1cc(Br)nc(Br)c1)c1cccc(Cl)c1`, the melting point is 187 to 189 °C.

In turn, `COc1ccc(-n2nc(N3CCN(C(N)=O)CC3)c3ccccc32)cc1` had a melting point of 155 to 157 °C.

`O=C(Nc1c[nH]nc1C(=O)NCCCOc1ccccc1)c1ccccn1` showed a melting point of 182 to 184 °C.

Take `CC(=S)NCC1CN(c2ccc(C(=O)NN)c(F)c2)C(=O)O1` (centres undefined): the melting point worked out at 177 °C.

In turn, `Cc1ccc(S(=O)(=O)NO[Si](C)(C)C)cc1` came in with a melting point of 87 to 90 °C.

In the case of `Fc1cccc(F)c1COc1cccnc1NC(=S)Nc1ccc(Cl)cc1`, the melting point was 151 to 154 °C.

The compound `CN(C)CCCNS(=O)(=O)c1cccc(N)c1` gave a melting point of 89 to 93 °C.

Turning to `Nc1ccc(S(=O)(=O)Nc2nnc(CO)s2)cc1`, the melting point is 89 to 90 °C.

On to `CCCCCCCCCCCCCCOc1ccc(CC(=O)OC)cc1Cl`, for which the melting point was 24 to 25 °C.

Take `Cn1ncc(C(=O)N2CCC2)c1C(=O)Nc1ccn2nc(-c3cccnc3)nc2c1`: the melting point was 253 to 254 °C.

For the compound `Cc1nc(N2CCNCC2)nc(N2CCSCC2)c1C#N`, the melting point lay in the range of 146 to 148 °C.

For the compound `Cc1cc(-c2cc(C(F)F)n3ncc(C(=O)Nc4cccc(S(=O)(=O)N5CCOCC5)c4)c3n2)ccc1C(F)(F)F`, the melting point is 261 °C.

Take `CC(Cc1ccc(C(=O)C(C)(C)O)cc1)C(=O)O` (centres undefined): the melting point is 57 °C.

As to `COC(=O)c1c(C)nc2c(C)cc(C)cc2c1-c1ccccc1Cl`, the melting point is 119 to 120 °C.

`COc1ccn2nc(-c3ccccc3)c(-c3ccc(=O)[nH]n3)c2c1` had a melting point of 246 to 247 °C.

With `CCOCC(=O)Nc1ccc(OC(=O)NC)cc1C`, the melting point is 118 to 121 °C.

`Cn1cc(C2=C(c3cn(C)c4ccc(N)cc34)C(=O)NC2=O)c2ccccc21` had a melting point of 254 to 256 °C.

Compound `CCSc1cc(CC=NOC)ccc1N(CC)c1nc(C)cc(C)n1` had a melting point of 77 to 78 °C.

For the compound `O=C(c1cccs1)c1cnn2c(-c3ccc(Cl)nc3)ccnc12`, the melting point lay within 145 to 148 °C.

In the case of `CCCCOc1ncc(I)cc1C(N)=O`, the melting point lay in the range of 163 to 166 °C.

Turning to `COc1ccc(C2(C#N)CCC(CC(=O)O)CC2)c2c1OCCO2` (centres undefined), the melting point was 149 to 150 °C.

The compound `CCCCOC(=O)c1ccc(NCc2cc(Br)ccc2OCc2ccccc2)nn1` gave a melting point of 133 to 135 °C.

Compound `COC(=O)c1sccc1S(=O)(=O)NC(=O)Nc1nc(C)nc(C)n1` displayed a melting point of 158 to 178 °C.

`COc1ccc(C(=O)NCCCCCCCCCNC(=O)c2ccc(OC)cc2)cc1` came in with a melting point of 156 to 157 °C.

For the compound `Cc1c(Cl)sc2c1c(-c1ccccc1F)nc(=O)n2C`, the melting point lay within 175 to 176 °C.

For `Cc1cccc(-c2ccc(C(=O)N3Cc4cccn4Cc4ccccc43)cc2)c1`, the melting point lay within 128 to 130 °C.

As to `CN1CCN(c2ccc(S(=O)(=O)Oc3ccc(F)cc3)cc2)C1=O`, the melting point lay in the range of 170 to 172 °C.

`O=c1cc2ccccc2c[nH]1`: the melting point worked out at 201 °C.

`COCCc1nc2c(N)nc3cc(-c4cccc(CO)c4)ccc3c2n1CC(C)(C)O`: the melting point is 212 to 213 °C.

The compound `CCOC(=O)c1cc(=O)cc(-c2ccc(O)cc2)o1` came in with a melting point of 213 to 215 °C.

Turning to `CCC1(CC)C(=O)Nc2ccc(-c3ccc(C#N)n3C)cc21`, the melting point is 233 to 235 °C.

As for `Nc1cc2c(cc1[N+](=O)[O-])CCO2`, the melting point was 140 to 142 °C.

Turning to `CC(C)(C)C(=O)Oc1cc(OS(=O)(=O)C(F)(F)F)cc2oc(-c3ccccc3)cc(=O)c12`, the melting point fell in the range of 126 to 128 °C.

Regarding `CC(C)(C)OC(=O)NCc1ccc(C(=O)NNC(=O)OCc2ccccc2)cc1`, the melting point lay within 160 to 162 °C.

In turn, `O=C1c2ccccc2C(=O)N1OCCCN1CCOCC1` displayed a melting point of 98 °C.

As to `COc1ccc2c(c1)cc(-c1nc(C)no1)n2-c1ccc(CNC(=O)C2(N)CC2)cc1`, the melting point lay within 145 to 146 °C.

With `CSc1nnc(N2CCN(c3ccc(N4CC(CNC(C)=O)OC4=O)cc3F)CC2)s1` (centres undefined), the melting point was 222 to 223 °C.

In turn, `COc1c(C(=O)O)cc([N+](=O)[O-])c2ccccc12` had a melting point of 102 to 104 °C.

As for `CCOCc1nc2c(N)nc(C)c(C)c2n1CCCC(=O)N1CCOCC1`, the melting point lay within 156 to 158 °C.

Compound `COCCSc1cc(N)ncn1` yielded a melting point of 78 to 80 °C.

`Cc1cccc(NC(=O)NCC(=O)N(CC(=O)N(C)c2ccccc2Cl)c2ccccc2)c1`: the melting point was found to be 175 °C.

`Cc1cccc(-c2nc(N)sc2-c2ccnc(F)c2)c1` showed a melting point of 214 to 218 °C.

`CCCOc1ncc(I)cc1-c1nc2c(CC)n(Cc3ccccn3)nc2c(=O)[nH]1` registered a melting point of 229 to 234 °C.

Compound `CC1(C)CCC(C)(C)c2cc(NC(=O)c3ccc(C=CC(=O)O)cc3)ccc21` gave a melting point of 226 to 227 °C.

Compound `CCC(C)(C)c1c(OCc2ncnn2C)nn2c(-c3ccccc3F)nncc12` displayed a melting point of 89 to 91 °C.

As to `CC(C)NC(=O)NC1CCC(=O)c2ccccc21` (centres undefined), the melting point fell in the range of 185 to 188 °C.

As to `CC(=O)Nc1ccc(/C=C/C(=O)NCC(=O)N(C)c2ccc(C)c(CO)c2C)cn1`, the melting point lay in the range of 215 to 216 °C.

`COCC1CCCN(/C(C)=C(/C#N)C(N)=S)C1` (centres undefined) showed a melting point of 151 to 152 °C.

With `CSc1nc2ccc(Br)cc2c(=O)[nH]1`, the melting point worked out at 230 °C.

With `Oc1ccc(C2(c3cccc(O)c3)c3ccccc3-c3ccccc32)cc1`, the melting point stood at 221 °C.

Consider `CCOC(=O)CNC(=O)CS(=O)(=O)Nc1ccc(F)c(C(F)(F)F)c1`, for which the melting point lay in the range of 145 to 147 °C.

The compound `O=C(O)Cc1ccc(OCCC(c2ccccc2)(c2ccccc2)c2ccccc2)cc1` returned a melting point of 148 to 149 °C.

The compound `CCOC(=O)c1cc(=O)c2c(OCC(O)COc3ccc(C#N)cc3)cccc2o1` (centres undefined) displayed a melting point of 137 to 139 °C.

Turning to `COCCOc1cc(N(C)S(=O)(=O)c2cccs2)c2[nH]c(C3=NCC(CC(N)=O)S3)cc2c1` (centres undefined), the melting point lay within 189 to 190 °C.

For `COC(=O)c1ccc(N)c(C=C(Br)Br)c1`, the melting point is 112 to 113 °C.

As for `Cc1c(C(=O)OCc2ccccc2)sc(NC(=O)c2cccnc2)c1C(=O)OC(C)(C)C`, the melting point is 165 to 166 °C.

`Cc1cc(C#N)cc(CNc2c(NC(C)(C)C)c(=O)c2=O)c1` had a melting point of 253 to 255 °C.

The compound `NC(=O)COCCOCCN1CCC(=C(c2ccccc2)c2ccccc2)CC1` displayed a melting point of 51 to 53 °C.

The compound `C=CCONC(=O)c1nc(-c2ccc(Cl)c(OC)c2F)nc(N)c1OC` gave a melting point of 148 to 150 °C.

For `Cc1cc(C2=NOC(c3cc(Cl)cc(Cl)c3)(C(F)(F)F)C2)ccc1C(=O)Nc1ccc(Cl)cn1` (centres undefined), the melting point was 129 to 132 °C.

`Cc1nn(C(=O)NC(C)(C)C)c(=O)n1N`: the melting point was 132 °C.

In turn, `CCN1CCN(c2cc3c(cc2F)c(=O)c(C(=O)O)cn3CC)CC1` yielded a melting point of 251 to 253 °C.

For the compound `COc1cc(OC)cc(C(=O)NCC(=O)N2c3ccccc3N(Cc3ccccc3)C(=O)[C@H]3CCC[C@H]32)c1` (relative stereo), the melting point is 113 to 115 °C.

Turning to `O=[N+]([O-])c1cc(Br)cc(OCCF)c1`, the melting point lay within 59 to 61 °C.

The compound `COc1ccc(CS(=O)(=O)Cc2ccc(OC)cc2OC)c(OC)c1` returned a melting point of 104 to 106 °C.

Compound `COC(=O)c1ccc(SC(Cn2ccnc2)c2ccc(Cl)cc2Cl)cc1` (centres undefined) gave a melting point of 121 to 124 °C.

`CCOC(=O)C(=C(C)N)c1nc(N)c([N+](=O)[O-])nc1Cl` displayed a melting point of 162 to 163 °C.

The compound `O=S(=O)(Nc1ccccc1OCc1csc(-c2ccccc2)n1)C(F)(F)F` came in with a melting point of 123 to 125 °C.

As to `O=C1[C@@H]2C[C@H](Oc3ccc(Br)cc3)CN2C(=O)N1c1cc(Cl)cc(Cl)c1`, the melting point amounted to 116 °C.

The compound `Clc1cc(-c2ccccc2)nc2nn(-c3ccccc3)cc12` returned a melting point of 175 to 177 °C.

In turn, `CS(=O)(=O)c1ccc(-c2cc(C(F)(F)F)nn2-c2ccc(F)cc2)cc1F` yielded a melting point of 228 to 229 °C.

On to `Cn1ncc(C(=O)N2CCC2)c1C(=O)Nc1ccn2nc(N3CCOCC3)nc2c1`, for which the melting point is 232 to 234 °C.

`CNCCc1c[nH]c2ccc(Cn3cncn3)cc12` registered a melting point of 139 to 141 °C.

`COC(=O)c1cc(N)c(Oc2ccccc2)c(N2C(=O)CCC2=O)c1` registered a melting point of 199 to 200 °C.

On to `COc1cc(OC)c2c(C)c(CCOS(C)(=O)=O)c(=O)oc2c1`, for which the melting point was 170 to 172 °C.

`O=C1NC(=O)C(S(=O)(=O)c2ccc(Cl)cc2)S1` (centres undefined) came in with a melting point of 143 to 144 °C.

The compound `COc1ccc2c(c1)c(S(=O)(=O)c1ccccc1)cn2CCNCc1ccccc1` returned a melting point of 98 to 99 °C.

In the case of `CNc1nc(C)c(-c2ccnc(Nc3cccc(S(=O)(=O)NCCOC)c3)n2)s1`, the melting point was in the range of 205 to 206 °C.

Compound `CN(C)C(=O)Nc1c(Cl)cc2c(c1Cl)C(c1ccccc1F)=NCC(=O)N2C` displayed a melting point of 145 to 147 °C.

`CS(=O)(=O)Nc1ccc(-c2nc(C(F)(F)F)c[nH]2)cc1`: the melting point fell in the range of 253 to 255 °C.
